Laboratory results from patent US20180030500A1, “ENRICHMENT AND SELECTIVE CULTURE OF MYCOBACTERIA” (priority 2015, published 2018).
Like-named read-outs stand apart in the source and are kept apart here.

How the values were obtained:
Mycobacteria = conditions: 20 strains, 7 days
Fungi/yeasts = conditions: 8 strains, 7 days
Gram-positive bacteria = conditions: 10 strains, 7 days
Enterobacteria = conditions: 7 strains, 7 days
Pseudomonas aeruginosa = conditions: 50 strains, 7 days
[1] = selective agent 5 mg/l in medium L
[2] = selective agent 10 mg/l in medium L
[3] = selective agent 20 mg/l in medium L
[4] = selective agent 400 mg/l in medium L
[5] = selective agent 800 mg/l in medium L
[6] = selective agent 1600 mg/l in medium L
[7] = selective agent 0.125 mg/l in medium L
[8] = selective agent 0.25 mg/l in medium L
[9] = selective agent 0.5 mg/l in medium L
[10] = selective agent 16 mg/l in medium L
[11] = selective agent 32 mg/l in medium L
[12] = selective agent 64 mg/l in medium L
[13] = selective agent 2.5 mg/l in medium L
[14] = selective agent 5.0 mg/l in medium L
[15] = selective agent 128 mg/l in medium L

C[C@@H]1[C@H](O)[C@@H](C)/C=C/C=C/C=C/C=C/C=C/C=C/C=C/[C@H](O[C@@H]2O[C@H](C)[C@@H](O)[C@H](N)[C@@H]2O)C[C@@H]2O[C@](O)(C[C@@H](O)C[C@@H](O)[C@H](O)CC[C@@H](O)C[C@@H](O)CC(=O)O[C@H]1C)C[C@H](O)[C@H]2C(=O)O [amphotericin B]
Number of strains having shown growth (Mycobacteria; [1]): 20
Percentage of strains having shown growth (Mycobacteria; [1]): (100%)
Number of strains having shown growth (Mycobacteria; [2]): 20
Percentage of strains having shown growth (Mycobacteria; [2]): (100%)
Number of strains having shown growth (Mycobacteria; [3]): 20
Percentage of strains having shown growth (Mycobacteria; [3]): (100%)
Number of strains having shown growth (Fungi/yeasts; [1]): 6
Percentage of strains having shown growth (Fungi/yeasts; [1]): (75%)
Number of strains having shown growth (Fungi/yeasts; [2]): 4
Percentage of strains having shown growth (Fungi/yeasts; [2]): (50%)
Number of strains having shown growth (Fungi/yeasts; [3]): 3
Percentage of strains having shown growth (Fungi/yeasts; [3]): (37.5%)

C[C@@H]1O[C@@H]1P(=O)(O)O [fosfomycin]
Number of strains having shown growth (Gram-positive bacteria; [4]): 0
Number of strains having shown growth (Gram-positive bacteria; [5]): 0
Number of strains having shown growth (Gram-positive bacteria; [6]): 0
Number of strains having shown growth (Mycobacteria; [4]): 20
Percentage of strains having shown growth (Mycobacteria; [4]): (100%)
Number of strains having shown growth (Mycobacteria; [5]): 20
Percentage of strains having shown growth (Mycobacteria; [5]): (100%)
Number of strains having shown growth (Mycobacteria; [6]): 20
Percentage of strains having shown growth (Mycobacteria; [6]): (100%)
Number of strains having shown growth (Enterobacteria; [4]): 3
Percentage of strains having shown growth (Enterobacteria; [4]): (43%)
Number of strains having shown growth (Enterobacteria; [5]): 2
Percentage of strains having shown growth (Enterobacteria; [5]): (29%)
Number of strains having shown growth (Enterobacteria; [6]): 2
Percentage of strains having shown growth (Enterobacteria; [6]): (29%)
Number of strains having shown growth (Pseudomonas aeruginosa; [4]): 15
Percentage of strains having shown growth (Pseudomonas aeruginosa; [4]): (30%)
Number of strains having shown growth (Pseudomonas aeruginosa; [5]): 8
Percentage of strains having shown growth (Pseudomonas aeruginosa; [5]): (16%)
Number of strains having shown growth (Pseudomonas aeruginosa; [6]): 6
Percentage of strains having shown growth (Pseudomonas aeruginosa; [6]): (12%)

CN(C)c1ccc(C(=C2C=CC(=[N+](C)C)C=C2)c2ccccc2)cc1 [malachite green]
Number of strains having shown growth (Gram-positive bacteria; [7]): 10
Percentage of strains having shown growth (Gram-positive bacteria; [7]): (100%)
Number of strains having shown growth (Gram-positive bacteria; [8]): 10
Percentage of strains having shown growth (Gram-positive bacteria; [8]): (100%)
Number of strains having shown growth (Gram-positive bacteria; [9]): 9
Percentage of strains having shown growth (Gram-positive bacteria; [9]): (90%)
Number of strains having shown growth (Mycobacteria; [7]): 16
Percentage of strains having shown growth (Mycobacteria; [7]): (80%)
Number of strains having shown growth (Mycobacteria; [8]): 20
Percentage of strains having shown growth (Mycobacteria; [8]): (100%)
Number of strains having shown growth (Mycobacteria; [9]): 20
Percentage of strains having shown growth (Mycobacteria; [9]): (100%)
Number of strains having shown growth (Enterobacteria; [7]): 7
Percentage of strains having shown growth (Enterobacteria; [7]): (100%)
Number of strains having shown growth (Enterobacteria; [8]): 7
Percentage of strains having shown growth (Enterobacteria; [8]): (100%)
Number of strains having shown growth (Enterobacteria; [9]): 7
Percentage of strains having shown growth (Enterobacteria; [9]): (100%)
Number of strains having shown growth (Pseudomonas aeruginosa; [7]): 50
Percentage of strains having shown growth (Pseudomonas aeruginosa; [7]): (100%)
Number of strains having shown growth (Pseudomonas aeruginosa; [8]): 50
Percentage of strains having shown growth (Pseudomonas aeruginosa; [8]): (100%)
Number of strains having shown growth (Pseudomonas aeruginosa; [9]): 50
Percentage of strains having shown growth (Pseudomonas aeruginosa; [9]): (100%)

CCn1cc(C(=O)O)c(=O)c2ccc(C)nc21 [nalidixic acid]
Number of strains having shown growth (Gram-positive bacteria; [10]): 9
Percentage of strains having shown growth (Gram-positive bacteria; [10]): (90%)
Number of strains having shown growth (Gram-positive bacteria; [11]): 8
Percentage of strains having shown growth (Gram-positive bacteria; [11]): (80%)
Number of strains having shown growth (Gram-positive bacteria; [12]): 7
Percentage of strains having shown growth (Gram-positive bacteria; [12]): (70%)
Number of strains having shown growth (Mycobacteria; [10]): 20
Percentage of strains having shown growth (Mycobacteria; [10]): (100%)
Number of strains having shown growth (Mycobacteria; [11]): 20
Percentage of strains having shown growth (Mycobacteria; [11]): (100%)
Number of strains having shown growth (Mycobacteria; [12]): 20
Percentage of strains having shown growth (Mycobacteria; [12]): (100%)
Number of strains having shown growth (Enterobacteria; [10]): 4
Percentage of strains having shown growth (Enterobacteria; [10]): (57%)
Number of strains having shown growth (Enterobacteria; [11]): 0
Number of strains having shown growth (Enterobacteria; [12]): 0
Number of strains having shown growth (Pseudomonas aeruginosa; [10]): 50
Percentage of strains having shown growth (Pseudomonas aeruginosa; [10]): (100%)
Number of strains having shown growth (Pseudomonas aeruginosa; [11]): 43
Percentage of strains having shown growth (Pseudomonas aeruginosa; [11]): (86%)
Number of strains having shown growth (Pseudomonas aeruginosa; [12]): 35
Percentage of strains having shown growth (Pseudomonas aeruginosa; [12]): (70%)

CN[C@H](CC(C)C)C(=O)N[C@H]1C(=O)N[C@@H](CC(N)=O)C(=O)N[C@H]2C(=O)N[C@H]3C(=O)N[C@H](C(=O)N[C@H](C(=O)O)c4cc(O)cc(O)c4-c4cc3ccc4O)[C@H](O)c3ccc(c(Cl)c3)Oc3cc2cc(c3O[C@@H]2O[C@H](CO)[C@@H](O)[C@H](O)[C@H]2O[C@H]2C[C@](C)(N)[C@H](O)[C@H](C)O2)Oc2ccc(cc2Cl)[C@H]1O [vancomycin]
Number of strains having shown growth (Gram-positive bacteria; [13]): 0
Number of strains having shown growth (Gram-positive bacteria; [14]): 0
Number of strains having shown growth (Gram-positive bacteria; [2]): 0
Number of strains having shown growth (Mycobacteria; [13]): 19
Percentage of strains having shown growth (Mycobacteria; [13]): (95%)
Number of strains having shown growth (Mycobacteria; [1]): 19
Percentage of strains having shown growth (Mycobacteria; [1]): (95%)
Number of strains having shown growth (Mycobacteria; [2]): 19
Percentage of strains having shown growth (Mycobacteria; [2]): (95%)
Number of strains having shown growth (Enterobacteria; [13]): 7
Percentage of strains having shown growth (Enterobacteria; [13]): (100%)
Number of strains having shown growth (Enterobacteria; [14]): 7
Percentage of strains having shown growth (Enterobacteria; [14]): (100%)
Number of strains having shown growth (Enterobacteria; [2]): 7
Percentage of strains having shown growth (Enterobacteria; [2]): (100%)
Number of strains having shown growth (Pseudomonas aeruginosa; [13]): 50
Percentage of strains having shown growth (Pseudomonas aeruginosa; [13]): (100%)
Number of strains having shown growth (Pseudomonas aeruginosa; [14]): 50
Percentage of strains having shown growth (Pseudomonas aeruginosa; [14]): (100%)
Number of strains having shown growth (Pseudomonas aeruginosa; [2]): 50
Percentage of strains having shown growth (Pseudomonas aeruginosa; [2]): (100%)

colistin methanesulfonate
Number of strains having shown growth (Gram-positive bacteria; [11]): 7
Percentage of strains having shown growth (Gram-positive bacteria; [11]): (70%)
Number of strains having shown growth (Gram-positive bacteria; [12]): 6
Percentage of strains having shown growth (Gram-positive bacteria; [12]): (60%)
Number of strains having shown growth (Gram-positive bacteria; [15]): 5
Percentage of strains having shown growth (Gram-positive bacteria; [15]): (50%)
Number of strains having shown growth (Mycobacteria; [11]): 20
Percentage of strains having shown growth (Mycobacteria; [11]): (100%)
Number of strains having shown growth (Mycobacteria; [12]): 20
Percentage of strains having shown growth (Mycobacteria; [12]): (100%)
Number of strains having shown growth (Mycobacteria; [15]): 20
Percentage of strains having shown growth (Mycobacteria; [15]): (100%)
Number of strains having shown growth (Enterobacteria; [11]): 3
Percentage of strains having shown growth (Enterobacteria; [11]): (43%)
Number of strains having shown growth (Enterobacteria; [12]): 3
Percentage of strains having shown growth (Enterobacteria; [12]): (43%)
Number of strains having shown growth (Enterobacteria; [15]): 3
Percentage of strains having shown growth (Enterobacteria; [15]): (43%)
Number of strains having shown growth (Pseudomonas aeruginosa; [11]): 5
Percentage of strains having shown growth (Pseudomonas aeruginosa; [11]): (10%)
Number of strains having shown growth (Pseudomonas aeruginosa; [12]): 5
Percentage of strains having shown growth (Pseudomonas aeruginosa; [12]): (10%)
Number of strains having shown growth (Pseudomonas aeruginosa; [15]): 5
Percentage of strains having shown growth (Pseudomonas aeruginosa; [15]): (10%)
